Assay results from paper PMC10892041, “Vanadium Complexes with Thioanilide Derivatives of Amino Acids: Inhibition of Human Phosphatases and Specificity in Various Cell Models of Metabolic Disturbances” (Pharmaceuticals, 2024).

Key:
Format in all cases: biochemical
SHP1 = biological target: T1, SHP1 (Homo sapiens, UniProt P29350); assay: Inhibition of human recombinant tyrosine phosphatase SHP1 (DiFMUP fluorescence); details: 1 µM, control solvent only, SD did not exceed 6%
T1 construct: purchased Sigma-Aldrich
Description: (§1) To determine the ability of the tested compounds for inhibition tyrosine phosphatases, human recombinant proteins were used (Sigma-Aldrich). The reactions were performed in black opaque 384-well microplates (PerkinElmer, Waltham, MA, USA). An equal volume of phosphatase solution in a reaction buffer (25 mM of 3-(N-morpholino)propanesulfonic acid (MOPS), 50 mM NaCl, 1 mM dithiothreitol (DTT), and 0.05% Tween-20 (pH 7.0)) was added to the solution of the tested compound on microplate. These solutions were dispensed using an automated injector. The following final concentrations of the tested phosphatases were used: PTP1B 50 ng/mL, SHP1 400 ng/mL, SHP2 50 ng/mL, LAR 5 ng/mL, and PTPRA 100 ng/mL. After 10 min, a solution of phosphate 6,8-difluoro-4-methyl (DiFMUP; Thermo Fisher Scientific) was added until its final concentration was 0.1 mM. Samples were incubated for 20 miN at 23 °C, and then the measurements of fluorescence intensity (excitation 355 and emission […]) were performed on a multifunctional plate reader POLARstar Omega (BMG Labtech, Ortenberg, Germany). Assays were performed in triplicate. For the screening assays, the final concentration of the tested compounds was 1 µM. The results were expressed as percent inhibition of untreated control (enzyme with vehicle only) for the screening tests. […] IC50 were calculated using GraphPad Prism version 6.0 software (GraphPad Software, Boston, MA, USA).

PTP1B = biological target: T2, PTP1B (Homo sapiens, UniProt P18031); assay: Inhibition of human recombinant tyrosine phosphatase PTP1B (DiFMUP fluorescence); details: for Inhibition of PTP1B, percentage of inhibition of the control: 1 µM, control solvent only, SD did not exceed 6%
T2 construct: purchased Sigma-Aldrich
T2 sequence (P18031 1-435): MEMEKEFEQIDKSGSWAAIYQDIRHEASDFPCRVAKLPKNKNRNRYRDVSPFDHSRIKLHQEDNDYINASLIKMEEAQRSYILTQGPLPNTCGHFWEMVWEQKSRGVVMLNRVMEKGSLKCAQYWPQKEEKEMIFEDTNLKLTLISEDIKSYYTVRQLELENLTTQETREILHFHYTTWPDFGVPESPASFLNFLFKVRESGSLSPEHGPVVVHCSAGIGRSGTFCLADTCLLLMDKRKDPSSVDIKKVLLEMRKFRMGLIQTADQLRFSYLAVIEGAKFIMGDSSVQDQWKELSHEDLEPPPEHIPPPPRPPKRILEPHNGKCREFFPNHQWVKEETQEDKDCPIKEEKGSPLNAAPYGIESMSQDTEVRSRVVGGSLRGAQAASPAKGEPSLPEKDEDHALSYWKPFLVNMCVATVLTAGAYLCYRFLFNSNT
Description: as §1

SHP2 = biological target: T3, SHP2 (Homo sapiens, UniProt Q06124); assay: Inhibition of human recombinant tyrosine phosphatase SHP2 (DiFMUP fluorescence); details: 1 µM, control solvent only, SD did not exceed 6%
T3 construct: purchased Sigma-Aldrich
T3 sequence (Q06124 1-593): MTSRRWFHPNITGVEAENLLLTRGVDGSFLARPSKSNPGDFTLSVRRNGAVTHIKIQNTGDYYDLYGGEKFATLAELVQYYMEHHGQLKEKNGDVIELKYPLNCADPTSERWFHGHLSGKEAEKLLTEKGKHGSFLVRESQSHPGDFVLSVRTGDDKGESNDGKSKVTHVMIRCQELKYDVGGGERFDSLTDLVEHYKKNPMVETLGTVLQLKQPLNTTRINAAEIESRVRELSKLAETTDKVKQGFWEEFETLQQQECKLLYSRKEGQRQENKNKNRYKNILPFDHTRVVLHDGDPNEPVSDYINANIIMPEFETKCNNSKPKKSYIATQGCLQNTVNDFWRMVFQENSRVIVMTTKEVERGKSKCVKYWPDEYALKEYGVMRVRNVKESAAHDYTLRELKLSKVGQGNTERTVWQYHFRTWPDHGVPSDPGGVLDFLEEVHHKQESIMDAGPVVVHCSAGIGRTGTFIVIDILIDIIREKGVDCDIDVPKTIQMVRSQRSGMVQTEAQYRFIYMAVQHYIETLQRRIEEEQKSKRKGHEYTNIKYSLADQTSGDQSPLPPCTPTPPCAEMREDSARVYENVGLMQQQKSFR
Description: as §1

LAR = biological target: T4, LAR (Homo sapiens, UniProt P10586); assay: Inhibition of human recombinant tyrosine phosphatase LAR (DiFMUP fluorescence); details: 1 µM, control solvent only, SD did not exceed 6%
T4 sequence (P10586 1352-1607 limits assumed): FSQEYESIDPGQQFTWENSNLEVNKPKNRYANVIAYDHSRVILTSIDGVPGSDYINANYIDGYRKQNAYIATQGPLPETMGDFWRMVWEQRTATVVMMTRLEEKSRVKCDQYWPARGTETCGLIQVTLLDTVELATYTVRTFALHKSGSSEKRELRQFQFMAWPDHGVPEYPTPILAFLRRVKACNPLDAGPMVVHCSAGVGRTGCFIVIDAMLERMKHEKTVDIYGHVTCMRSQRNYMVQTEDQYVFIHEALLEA
Description: as §1

T1 sequence (P29350 whole entry): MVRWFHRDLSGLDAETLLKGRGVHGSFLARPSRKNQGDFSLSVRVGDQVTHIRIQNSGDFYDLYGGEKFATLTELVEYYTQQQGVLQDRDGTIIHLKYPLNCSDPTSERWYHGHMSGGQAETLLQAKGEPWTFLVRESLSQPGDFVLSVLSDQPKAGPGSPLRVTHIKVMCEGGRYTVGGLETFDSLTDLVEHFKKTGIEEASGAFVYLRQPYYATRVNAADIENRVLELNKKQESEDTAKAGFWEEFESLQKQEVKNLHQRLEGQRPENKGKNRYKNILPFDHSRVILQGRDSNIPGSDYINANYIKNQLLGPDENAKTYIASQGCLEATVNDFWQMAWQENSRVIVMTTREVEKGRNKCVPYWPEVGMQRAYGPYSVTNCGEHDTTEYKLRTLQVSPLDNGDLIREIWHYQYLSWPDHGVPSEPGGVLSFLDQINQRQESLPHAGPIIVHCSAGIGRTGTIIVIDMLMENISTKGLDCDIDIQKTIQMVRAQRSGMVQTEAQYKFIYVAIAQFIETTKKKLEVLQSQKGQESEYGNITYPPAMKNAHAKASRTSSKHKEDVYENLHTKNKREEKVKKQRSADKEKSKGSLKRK

| Compound | inhibition at 1 µM (SHP1; read-out: Inhibition of SHP1, percentage of inhibition of the control) [%] | inhibition at 1 µM (PTP1B; read-out: Inhibition of PTP1B, percentage of inhibition of the control) [%] | inhibition at 1 µM (SHP2; read-out: Inhibition of SHP2, percentage of inhibition of the control) [%] | inhibition at 1 µM (LAR; read-out: Inhibition of LAR, percentage of inhibition of the control) [%] | Inhibition of SHP1, percentage of inhibition of the control (SHP1) [%] | Inhibition of PTP1B, percentage of inhibition of the control (PTP1B) [%] | Inhibition of SHP2, percentage of inhibition of the control (SHP2) [%] | Inhibition of LAR, percentage of inhibition of the control (LAR) [%] |
| --- | --- | --- | --- | --- | --- | --- | --- | --- |
| Cc1ccc(C(=O)Nc2ccc(S(=O)(=O)O)c3cc(S(=O)(=O)O)cc(S(=O)(=O)O)c23)cc1NC(=O)c1cccc(NC(=O)Nc2cccc(C(=O)Nc3cc(C(=O)Nc4ccc(S(=O)(=O)O)c5cc(S(=O)(=O)O)cc(S(=O)(=O)O)c45)ccc3C)c2)c1 [Suramin, reference compound] | 17 | 7 | 10 | 9 |  |  |  |  |
| CC(C)(C)c1ccc(C2=NN=Cc3cc(Br)ccc3[O][V](=[O])[O]2)cc1.O.c1cnc2c(c1)ccc1cccnc12 [VC048, [VO(L10)(phen)]⋅0.5H2O] |  |  |  |  | 62 | 36 | 64 | 35 |
| O.[O]=[V]1[O]C(c2ccc(O)cc2)=NN=Cc2cc(Br)ccc2[O]1.c1cnc2c(c1)ccc1cccnc12 [VC046, [VO(L9)(phen)]⋅2H2O] |  |  |  |  | 62 | 34 | 66 | 37 |
| CCC(C)C(N=C(C)CC(=S)Nc1ccccc1)C(=O)[O][V](=[O])([Cl])[Cl] (racemic) [VC109, [VOCl2(L5)]·3HCl] |  |  |  |  | 80 | 70 | 83 | 56 |
| C1CCOC1.CSCCC1C(=O)[O][V](=[O])([Cl])([Cl])[N]1C(C)=CC(=S)Nc1ccccc1.Cl (centres unmarked) [VC073, [VOCl2(L4)]·1.5THF·3HCl] |  |  |  |  | 82 | 74 | 86 | 63 |
